{"source": "patent US9265810B2", "about": "“Pharmaceutical composition and methods for modulating immune system, preventing, pretreating and/or treating cancers” (Hong Kong Baptist University, priority 2013, dated 2016)", "tested_on": "4T1 murine mammary cancer cells", "protocol": "In this example, the average body weight of mice is 20 g; and the doses of Taxol and RAP are 20 mg/kg, and 40 mg/kg, respectively."}
{"smiles": "CC(=O)O[C@H]1C(=O)[C@@]2(C)[C@H]([C@H](OC(=O)c3ccccc3)[C@]3(O)C[C@H](OC(=O)[C@H](O)[C@@H](NC(=O)c4ccccc4)c4ccccc4)C(C)=C1C3(C)C)[C@]1(OC(C)=O)CO[C@@H]1C[C@@H]2O", "note": "[Taxol, paclitaxel]", "values": [{"measurement": "survival rate at Day 55", "setting": "Day 55", "result": 30, "unit": "%"}, {"measurement": "anticancer effect compared to control group", "setting": "RAP 40 mg/kg/day gavage since day 0, Taxol 20 mg/kg/week i.p. since day 17, tumor cells at day 7", "result": "significant anticancer effect"}, {"measurement": "death at day 50", "setting": "day 50, when all the mice of Control group died", "result": "no death occurred"}]}
